Literature values as cited in patent publication US10835585B2, “Shared neoantigens” (priority 2015, dated 2020).

Legend:
[1] = tested on: serum prostate specific antigen (PSA); conditions: advanced hormone refractory prostate cancer; personalized vaccination combined with a low dose of estramustine
[2] = tested on: ovarian carcinoma patients
[3] = more than 25 clinical trials
healthy human volunteers = conditions: 8 healthy volunteers, one single s.c. administration, versus 4 placebo subjects; whole blood

Row | Molecule | patients with ≥50% decrease in serum prostate specific antigen (PSA) [1] [%] | generation of NY-ESO-1-specific CD4+ and CD8+ T-cell and antibody responses ([2]; 1.4 mg poly-ICLC and Montanide added to OLP, compared to OLP alone or OLP and Montanide, s.c.) | patients showing induction of CD4+ and CD8+ T cell, as well as antibody responses to the peptide ([2]; ovarian carcinoma patients, poly-ICLC with NY-ESO-1 peptide vaccine and Montanide, phase 1) [%] | toxicity profile [3] | differential expression of genes versus placebo (healthy human volunteers)
1 | C[C@]12CC[C@@H]3c4ccc(OC(=O)N(CCCl)CCCl)cc4CC[C@H]3[C@@H]1CC[C@@H]2O [estramustine] | 54 |  |  |  | 
2 | Polyinosinic-Polycytidylic Acid-poly-L-lysine Carboxymethylcellulose [poly-ICLC] |  | markedly enhanced | > 90 | relatively benign toxicity profile | up to 212 genes
